Results on 40 compounds are retold here after ChEMBL document CHEMBL5625237 (Eur J Med Chem, 2023).

Data set [1] has as its target Replicase polyprotein 1ab (Severe acute respiratory syndrome coronavirus 2) (UniProt P0DTD1). Put plainly: Inhibition of recombinant full length his tagged C-terminal SARS-CoV 2 main protease (M1 to Q307 residues) expressed in Escherichia coli BL21 (DE3) cells using LGSAVLQ-Rh110-dP as peptide substrate at 10 uM preincubated for 1 hr followed by substrate addition and measured after 24 hrs by fluorescence based analysis relative to control. The note with it: time 25.0 hrs.

Data set [2] in a line: Cytotoxicity against human Calu-3 cells measured after 2 days by MTT assay. It is filed as toxicity, cell-based. As to conditions: time 2 day.
For data set [3], the system named is SARS-CoV-2. Put plainly: Antiviral activity against SARS CoV-2 (hCoV-19/Korea/KCDC06/2020) infected in human Calu-3 cells pre-infected with virus followed by compound addition and measured after 2 days post infection. Format: functional, organism-based. The note with it: Severe acute respiratory syndrome coronavirus 2, hCoV-19/Korea/KCDC06/2020, Calu-3, 48 h.

Data set [4] can be described thus: Selectivity index, ratio of CC50 for human Calu-3 cells to EC50 for SARS CoV-2 (hCoV-19/Korea/KCDC06/2020) infected in human Calu-3 cells. As to conditions: read-out: Ratio CC50/EC50. It is filed as toxicity, cell-based.
Data set [5] concerns the target T1, Replicase polyprotein 1ab (Severe acute respiratory syndrome coronavirus 2, UniProt P0DTD1). The data set can be described thus: Inhibition of recombinant full length SARS-CoV-2 main protease expressed in Escherichia coli preincubated for 10 mins followed by substrate addition and measured every 30 secs for 10 mins.
In data set [6] the target is T1, Replicase polyprotein 1ab. The data set can be described thus: Inhibition of recombinant full length his tagged C-terminal SARS-CoV 2 main protease (M1 to Q307 residues) expressed in Escherichia coli BL21 (DE3) cells using LGSAVLQ-Rh110-dP as peptide substrate preincubated for 1 hr followed by substrate addition and measured after 24 hrs by fluorescence based analysis.

Data set [7] has as its system SARS-CoV-2. Put plainly: Antiviral activity against SARS-CoV-2 (nCoV-2019BetaCoV/Wuhan/WIV04/2019) infected in african green monkey Vero E6 cells preincubated with compound for 1 hr followed by viral infection for 2 hrs and measured after 24 hrs post infection by real time PCR analysis. It is filed as functional, organism-based. The note with it: Severe acute respiratory syndrome coronavirus 2, nCoV-2019BetaCoV/Wuhan/WIV04/2019, Vero C1008. (In general: Quantitative PCR measures a nucleic acid by following its amplification.)

Data set [8] relates to SARS-CoV-2. The data set can be described thus: microbe, parasite or virus in culture. As to conditions: Severe acute respiratory syndrome coronavirus 2, USA/NYU-VC-003/2020, A549-ACE2.

Broadly, the inhibition is the change of the read-out against control, counted positive when it falls. As to `O=C(NCCCCC1CCCCC1)n1cc(F)c(=O)[nH]c1=O`, the inhibition in data set [1] is 31%.

In general, CC50 refers to the concentration at which the toxic effect on the cells reaches its halfway point. Usually EC50 stands for the concentration giving half of the maximal effect. Regarding `CCC(CC)COC(=O)[C@H](C)N[P@](=O)(OC[C@H]1O[C@@](C#N)(c2ccc3c(N)ncnn23)[C@H](O)[C@@H]1O)Oc1ccccc1`, in data set [2], the 50% cytotoxic concentration (CC50) at 48 h was > 100 µM. This compound also displayed an EC50 with SARS-CoV-2 [3] of 0.58 µM. Further, in data set [4], the selectivity ratio was > 172.

The IC50 is the concentration at which inhibition is half-maximal. Turning to `O=C(CC1CCCCC1)N1CCC(CCCNC(=O)n2cc(F)c(=O)[nH]c2=O)CC1`, the values for the IC50 in data set [5] and in data set [6] were 0.04 µM and 4.5 µM, respectively. Moreover, in the data set with SARS-CoV-2 [7], the EC50 turned out to be 0.72 µM.

Take `O=C(Cc1ccccc1)N1CCC(CCCNC(=O)n2cc(F)c(=O)[nH]c2=O)CC1`: the IC50 in data set [6] stood at 3.9 µM.

`CCn1c(C(=O)NCCCNC(=O)n2cc(F)c(=O)[nH]c2=O)cc2ccccc21`: the 50% inhibitory concentration (IC50) in data set [6] was 1.9 µM.

On to `O=C(NCCCC1CCNCC1)n1cc(F)c(=O)[nH]c1=O`, for which, in data set [1], the inhibition is 19%.

Take `Cn1ccc2ccc(C(=O)NCCCNC(=O)n3cc(F)c(=O)[nH]c3=O)cc21`: the IC50 in data set [6] came to 3.8 µM.

As for `CCCCCCNC(=O)n1cc(C(F)(F)F)c(=O)[nH]c1=O`, in data set [6], the IC50 was 7.4 µM.

The compound `CC(C)(C)CC(=O)N1CCC(CCCNC(=O)n2cc(F)c(=O)[nH]c2=O)CC1` displayed a CC50 at 48 h in data set [2] of 99 µM. In addition, the EC50 worked out at 12 µM in the data set on SARS-CoV-2 [3] and 0.53 µM in the data set on SARS-CoV-2 [7]. The IC50 in data set [5] was found to be 0.053 µM; in data set [6], 1.7 µM. The selectivity ratio in data set [4] was 8.3.

As for `CCCCCCNC(=O)n1cc(C)c(=O)[nH]c1=O`, the IC50 in data set [6] stood at 7.6 µM.

Turning to `COc1cccc2[nH]c(C(=O)N[C@@H](CC(C)C)C(=O)N[C@@H](C[C@@H]3CCNC3=O)C(=O)CO)cc12` [PF-00835231], in the data set on SARS-CoV-2 [8], the EC50 amounted to 0.221 µM.

Regarding `CC(C)(C)OC(=O)N1CCC(CCCNC(=O)n2cc(F)c(=O)[nH]c2=O)CC1`, the IC50 in data set [6] came out at 3.4 µM.

With `CC(C)Cn1c(C(=O)NCCCNC(=O)n2ccc(=O)[nH]c2=O)cc2cc(Cl)ccc21`, in data set [2], the CC50 at 48 h was > 100 µM. In addition, the IC50 in data set [6] amounted to 1.6 µM.

As to `CCCCCCNC(=O)n1cc(CC)c(=O)[nH]c1=O`, in data set [6], the IC50 was 6.2 µM.

`O=C(c1ccc2cc[nH]c2c1)N1CCC(CCCNC(=O)n2cc(F)c(=O)[nH]c2=O)CC1`: in data set [6], the IC50 was found to be 3.1 µM.

`CCCCCCNC(=O)n1cc(F)c(=O)[nH]c1=O` [CARMOFUR]: the CC50 at 48 h in data set [2] is > 100 µM. In addition, the EC50 in the data set with SARS-CoV-2 [3] is > 100 µM.

Take `CC(C)Cn1c(C(=O)NCCCNC(=O)n2cc(F)c(=O)[nH]c2=O)cc2cc(C(F)(F)F)ccc21`: the IC50 in data set [6] is 0.79 µM.

In data set [2], `CC(C)Cn1c(C(=O)NCCCNC(=O)n2cc(F)c(=O)[nH]c2=O)cc2cc(F)ccc21` displayed a CC50 at 48 h of 98 µM. The compound further yielded a concentration giving a half-maximal response (EC50) in the data set on SARS-CoV-2 [3] of 29 µM. In addition, the selectivity ratio in data set [4] came to 3.3. In data set [6], the IC50 is 0.37 µM.

`CCCCCCNC(=O)n1ccc(=O)[nH]c1=O`: in data set [6], the IC50 came out at 9.8 µM.

With `CCCCCCNC(=O)n1cc(Br)c(=O)[nH]c1=O`, the 50% inhibitory concentration (IC50) in data set [6] is 7.4 µM.

Turning to `Cc1cn(C(=O)NCCCNC(=O)c2cc3cc(F)ccc3n2CC(C)C)c(=O)[nH]c1=O`, in data set [2], the CC50 at 48 h is > 100 µM. Also, the IC50 in data set [6] amounted to 0.7 µM.

Turning to `O=C(NCCCc1ccccc1)n1cc(F)c(=O)[nH]c1=O`, in data set [1], the inhibition amounted to 27%.

`COc1ccc2c(c1)cc(C(=O)NCCCNC(=O)n1cc(F)c(=O)[nH]c1=O)n2CC(C)C`: the IC50 in data set [6] was 1.4 µM.

Turning to `O=C(NCCCNC(=O)n1cc(F)c(=O)[nH]c1=O)c1ccc2cc[nH]c2c1`, in data set [6], the IC50 was determined as 2.4 µM.

Take `O=C(NCCCNC(=O)n1cc(F)c(=O)[nH]c1=O)c1cc2ccccc2n1Cc1ccccc1`: the IC50 in data set [6] came out at 5.1 µM.

As for `CC(C)Cn1c(C(=O)NCCCNC(=O)n2cc(F)c(=O)[nH]c2=O)cc2cc(OC(F)(F)F)ccc21`, the IC50 in data set [6] was 2.5 µM.

Turning to `CC(C)Cn1c(C(=O)NCCCNC(=O)n2ccc(=O)[nH]c2=O)cc2cc(F)ccc21`, the CC50 at 48 h in data set [2] was > 100 µM. In addition, the IC50 in data set [6] worked out at 0.57 µM.

As to `O=C(NCCCC1CCCCC1)n1cc(F)c(=O)[nH]c1=O`, in data set [6], the IC50 was 3.3 µM.

In the case of `O=C(NCCCNC(=O)n1cc(F)c(=O)[nH]c1=O)c1cc2ccccc2[nH]1`, the IC50 in data set [6] came to 2.6 µM.

On to `O=C(NCCCCc1ccccc1)n1cc(F)c(=O)[nH]c1=O`, for which, in data set [6], the 50% inhibitory concentration (IC50) came to 3.9 µM.

On to `CC(C)Cn1c(C(=O)NCCCNC(=O)n2cc(F)c(=O)[nH]c2=O)cc2ccccc21`, for which the IC50 in data set [6] came out at 0.97 µM.

As for `Cn1c(C(=O)NCCCNC(=O)n2cc(F)c(=O)[nH]c2=O)cc2ccccc21`, in data set [6], the IC50 came to 1.5 µM.

`CC(C)Cn1c(C(=O)NCCCNC(=O)n2cc(F)c(=O)[nH]c2=O)cc2cc(Cl)ccc21`: the CC50 at 48 h in data set [2] was > 100 µM. For the same compound, the EC50 in the data set on SARS-CoV-2 [3] worked out at 18 µM. Further, in data set [4], the selectivity ratio was > 5.5. In addition, the IC50 in data set [6] came out at 0.35 µM.

For the compound `O=C(NCCC1CCCC1)n1cc(F)c(=O)[nH]c1=O`, the CC50 at 48 h in data set [2] was > 100 µM. The EC50 in the data set with SARS-CoV-2 [3] turned out to be 49 µM. Further, the selectivity ratio in data set [4] is > 2. Besides, the IC50 in data set [6] worked out at 4.6 µM.

Take `O=C(NCCC1CCCCC1)n1cc(F)c(=O)[nH]c1=O`: the IC50 in data set [6] turned out to be 4.9 µM.

For the compound `O=C(NCCCCCCc1ccccc1)n1cc(F)c(=O)[nH]c1=O`, the IC50 in data set [6] stood at 3.8 µM.

As for `CC(C)C[C@H](CNC(=O)c1cc2ccccc2[nH]1)CNC(=O)n1cc(F)c(=O)[nH]c1=O`, the IC50 in data set [6] was 4.4 µM.

Consider `CCCCCCNC(=O)n1cc(Cl)c(=O)[nH]c1=O`, for which, in data set [6], the IC50 was 5.5 µM.

With `Cc1ccc2c(c1)cc(C(=O)NCCCNC(=O)n1cc(F)c(=O)[nH]c1=O)n2CC(C)C`, in data set [6], the IC50 was 1.2 µM.

As to `Cc1cn(C(=O)NCCCNC(=O)c2cc3cc(Cl)ccc3n2CC(C)C)c(=O)[nH]c1=O`, in data set [2], the CC50 at 48 h is > 100 µM. In data set [6], the half-maximal inhibitory concentration (IC50) came out at 1.3 µM.
